US20060241150A1, “P38 kinase inhibitor compositions and methods of using the same” (priority 2003, published 2006)
“Also recorded” adds a separate entry of the source.

Tests used:
[1] = test system: apoptosis of CD8+ T cells co-cultured with HIV infected macrophages; test: Bystander CD8+ T cell apoptosis induced by HIV infected macrophages (Annexin V); assay type: cell-based, human; conditions: 1 μM; latex bead stimulated 89.6 infected macrophages with autologous CD8+ T cells
Description: Monocyte-derived macrophages (MDM) were prepared from PBMCs obtained from healthy donors and incubated at 37° C. in polystyrene T-75 flasks for 4-10 hrs at 37° C. After the incubation the cells were washed with RPMI 1640 for 3 times to remove non-adherent cells. The adherent monocytes were detached with ethylene diamine tetra-acetic acid (EDTA) and the purity of the monocyte cell populations thus isolated was >98% as determined by FACS staining for CD14^+. The CD14^+ positive cells were incubated in 6-well plates at a density of 1×10^6 cells/ml in RPMI medium supplemented with 10% human serum.
Human PBMC's were isolated from healthy HIV-seronegative donors as described above. Purified CD8^+ T cells were isolated from PBMC by negative immunoselection using magnetic beads (Dynal, CA), for depletion of CD4^+ T cells. The puity of the isolated CD8+ T cells was determined to be by flow >99% pure. MDM were purified from freshly isolated PBMC as described above. MDM cells were cultured in 6 well plates at 0.5×10^6 cells/ml/well with 10 ng/ml M-CSF (R&D systems, MN) in RPMI 1640/10% Human serum. […] The analysis was performed on a gated CD8^+ T-cells (R1) and further CD8^+ positive cells were analyzed for the CD8^+/Annexin V positive cells (R2 population) in all experimental samples to further analysis the Apoptosis.

p38 MAP Kinase = p38 MAP Kinase (Homo sapiens, UniProt Q16539); conditions: cited from earlier work
c-Jun = test: Immunoblot of c-Jun in nuclear extracts of Nef treated cells; assay type: cell-based, human; conditions: 1 μM
Description: Experimental cells were washed with ice-cold PBS, and the cells were lysed in protein lysis buffer (20 mM Tris (pH7.4), 150 mM NaCl, 1 mM EDTA, 1 mMEGTA, 1% triton, 2.5 mM sodium pyrophosphate, 1 mM […]-glycerolphasphate, 1 mM Na3Vp4, 1 μM/ml leupeptin and 1 mM phenyl methyl-sulfonyl fluoride). After a brief sonication, the lysates were clarified by centrifugation at 10,000 rpm and protein content was measured by the Bradford method (Bio-Rad, CA). Nuclear extracts were prepared using NE-PER nuclear and cytoplasmic extraction reagents (Pierce, USA) and the protein concentration of the nuclear extract was determined by BCA-200 protein assay kit (Pierce, USA) assayed following the manufacturer's instructions.
For Western blot analysis 50 μg of protein per lane was loaded onto acrylamide gels and separated by 12% SDS-PAGE and blotted to PVDF tmnsfer membrane. Immunoblot was carried out using the primary antibody (c-Jun, Phospho-p38 MAP Kinase (Thr180/Tyr182); Cell Signaling, MA, USA) and detected with secondary HRP-conjugated anti-rabbit IgG using Amersham ECL system. Further, the membrane was washed thoroughly using lxWestern re-probe buffer (Geno Tech, MO) and re immunoblotted with anti-actin (Calbiochem, CA) antibody, which recognizes the actin expression in cultured and serves cells as a positive control for gene expression and as an internal standard.

AP-1 = AP-1 dependent luciferase reporter assay in Nef transfected Jurkat cells; assay type: cell-based, human; conditions: 1 μM; 24 hours
Description: (§1) Jurkat cells (1×10^6) were seeded onto a 60 mm culture dish (Falcon) and elctrotransfected the cells next day with NF-κB or AP-1 dependent reporter plasmid (10 μg) with pNef (10 μg), and/with or without Cpd4 (1 μM). After 24 hours, transfected cells were lysed with Reporter lysis Buffer (RLB) according to the manufacturer's instructions (Roche, USA). Luciferase activity was measured via LUMAT LB9501 (Berthold, USA). β-Gal levels were used to normalize for transfection efficiency with the chemiluminescent β-Gal reporter gene Assay kit (Roche, USA).

[2] = test system: Nef driven FasL expression in Jurkat cells; test: FasL expression in Jurkat cells transfected with pNef; assay type: cell-based, human
Text: (§2) Constructs containing Nef were generated using overlap extension PCR at the indicated codons and were cloned into the pCDNA3.1 vector (InVitrogen, CA). The HIV-1 proviral infectious vector pNL4-3 was obtained through the NIH AIDS research and Reference Reagent Program. This vector has been rendered Nef deficient by 5′ frame shift mutation in the Nef region (He, J., Choe, et al, J. Virol. 69, 6705-6711 (1995) which is incorporated herein by reference).
(§3) Single cell suspensions were washed in PBS (pH 7.2) containing 0.2% bovine serum albumin and 0.1% NaN3. Cells were incubated with PE labeled […]-CD95L antibody (NOK-1, 0.05 μg/ml, BD Pharmingen, CA, USA) antibody for 60 minutes at 4° C. Cells were washed with PBS and fixed with 2% paraformaldehyde and resuspended in 200 μl PBS and subjected to FACS (FL2 histogram) analysis (Beckton Dickinson, CA). Data were analyzed using the CELL Quest program (Beckton-Dickinson, CA).

[3] = test system: FasL expression in HIV-infected Jurkat T cells; test: FasL expression by flow cytometry in HIV-infected Jurkat T cells; assay type: cell-based, human; conditions: 1 μm, 89.6 or pNL4-3
Description: (§4) The human CD4^+ T cell line Jurkat, or the monocyte line U937 were obtained from the American Type Culture Collection (Rockville, Md.). Cells were passaged in RPMI1640 (Gibco-BRL, MD) supplemented with 10% FBS, 2 mM L-glutamine, 100 U/ml penicillin G, and 100 μg/ml streptomycin maintained at 37° C. and 5% CO2 and verified routinely to certify that they were Mycoplasma negative. Human PBMCs were isolated from healthy HIV-seronegative donors by Ficoll-Hypaque separation (Pharmacia Biotech AB, Sweden). Peripheral blood mononuclear cells (PBMCs) from healthy adults were incubated for 2 days with 5 μg/ml phytohemagglutinin (PHA, Sigma) before the addition of 5 U/ml of human recombinant interleukin-2 (hrIL-2; R&D system, MN).
(§5) Viruses that were assayed in these studies included the pNL 4-3 (dual tropic) virus, which uses both CCR5 & CxCR4 receptors, and 89.6 (dual tropic), which uses CCR5 & CxCR4 receptors. In addition clade specific viruses were studied and these were obtained through the NIH AIDS research and Reference Reagent Program. […]
(§6) Single cell suspensions were washed in PBS (pH 7.2) containing 0.2% bovine serum albumin and 0.1% NaN3. […] Data were analyzed using the CELL Quest program (Beckton-Dickinson, CA).

[4] = test system: HIV-1 induced apoptosis in human PBMCs; test: Annexin V-FITC FACS analysis of HIV-1 induced apoptosis in infected PBMCs; assay type: cell-based; conditions: for inhibition of apoptosis induced by 4 subtype divergent primary HIV viral isolates: FIG. 1C
Description: as §4
Viruses that were assayed in these studies included the pNL 4-3 (dual tropic) virus, which uses both CCR5 & CxCR4 receptors, and 89.6 (dual tropic), which uses CCR5 & CxCR4 receptors. In addition clade specific viruses were studied and these were obtained through the NIH AIDS research and Reference Reagent Program. For infection studies human PBMCs were isolated from normal, sero-negative donors, and infection was accomplished by incubating target cells with HIV-1 virus at a concentration of 100 TCID50/10^6 cells/ml. Culture supernatant was collected at 6, 12 and 24 hr intervals and assayed for virus production by measuring the p24 antigen released into the medium by ELISA (Coulter, FL) according to the manufacturer's instructions. Some data are presented as mean±SEM. For data presented as percent change, the base line (medium alone) value was subtracted from the value of each experimental condition as described in the legend.
(§7) FACS analysis was performed to identify cells undergoing apoptosis. Equal numbers of cells from each test group were collected for analysis. Apoptosis in experimental cells was analyzed by using an Annexin-V assay kit from PharMingen (CA). Data was analyzed by the CELL Quest program (Beckton-Dickinson, CA). Caspase 3 activity was determined using Caspase-3/CPP32 colorimetric protease assay kit according to the manufacturer's instructions (MBL, Nagoya, Japan).

[5] = test system: Nef mediated FasL expression in human PBMCs; test: p24gag / FasL flow cytometry in PBMCs infected with Nef positive pNL4-3 virus; assay type: cell-based; conditions: 1 μM; PBMCs infected with pNL4-3 Wt (Nef positive) virus
Text: as §2
To prepare infectious viral stocks, HIV-1 proviral DNA (pNL4-3 Wt and pNL4-3 and Nef delta) were generated as described Muthumani, K., et al, Journal of Biol. Chem. 277: 37820-37831 (2002). The viral titers were determined by infection of the human T cell line Jurkat using serially diluted virus supernatant. […] Viral stocks were normalized for virus content by infection and titration and stocks were stored in the presence of 10% FBS in aliquots at −80° C. until their use.
as §3

p38 MAPK = test: Immunoblot of p38 and phospho-p38 in Nef treated Jurkat cells; assay type: cell-based, human; conditions: 1 μM
Description: Experimental cells were washed with ice-cold PBS, and the cells were lysed in protein lysis buffer (20 mM Tris (pH7.4), 150 mM NaCl, 1 mM EDTA, 1 mMEGTA, 1% triton, 2.5 mM sodium pyrophosphate, 1 mM □-glycerolphasphate, 1 mM Na3Vp4, 1 μM/ml leupeptin and 1 mM phenyl methyl-sulfonyl fluoride). After a brief sonication, the lysates were clarified by centrifugation at 10,000 rpm and protein content was measured by the Bradford method (Bio-Rad, CA).
For Western blot analysis 50 μg of protein per lane was loaded onto acrylamide gels and separated by 12% SDS-PAGE and blotted to PVDF tmnsfer membrane. […] Further, the membrane was washed thoroughly using lxWestern re-probe buffer (Geno Tech, MO) and re immunoblotted with anti-actin (Calbiochem, CA) antibody, which recognizes the actin expression in cultured and serves cells as a positive control for gene expression and as an internal standard.

[6] = test system: FasL expression in HIV-infected PBMCs; test: FasL expression by flow cytometry in HIV-infected PBMCs; assay type: cell-based, human; conditions: 1 μm; PBMC's; 89.6 or pNL4-3
Description: as §4, §5, §6

Caspase 3 = test: Caspase-3/CPP32 colorimetric protease assay on lysates of HIV-1 infected cells; assay type: cell-based, human; conditions: 89.6 or pNL4-3 virus; FIG. 1D
Description: as §7

NF-κB = NF-κB dependent luciferase reporter assay in Nef transfected Jurkat cells; assay type: cell-based, human; conditions: 1 μM; 24 hours
Description: as §1

p38 MAP Kinase, sequence (Q16539 whole entry): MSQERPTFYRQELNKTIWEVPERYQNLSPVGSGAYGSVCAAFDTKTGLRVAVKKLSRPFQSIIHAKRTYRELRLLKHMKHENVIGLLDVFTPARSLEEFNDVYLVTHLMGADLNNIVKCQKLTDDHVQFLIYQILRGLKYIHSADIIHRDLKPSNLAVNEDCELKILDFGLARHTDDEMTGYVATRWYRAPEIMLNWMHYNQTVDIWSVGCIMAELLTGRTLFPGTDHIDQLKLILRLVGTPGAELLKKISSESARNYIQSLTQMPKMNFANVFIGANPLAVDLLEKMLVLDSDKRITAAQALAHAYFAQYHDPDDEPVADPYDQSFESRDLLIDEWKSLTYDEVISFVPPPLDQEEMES

Row | Compound | blocking of bystander CD8+ T cell apoptosis [1] | inhibition of p38 MAP Kinase (p38 MAP Kinase; at 1 μM concentrations) | anti-p38 activity compared with SB203580 (p38 MAP Kinase) | Nef mediated phosphorylation / activation of c-Jun (c-Jun) | blocking of Nef activation of AP-1 reporter (AP-1) | inhibition of Nef driven induction of FasL [2] | inhibition of FasL induction [3] | inhibition of apoptosis driven by virus (Annexin V-FITC) ([4]; 1 μM, 89.6 or pNL4-3 virus, 4 days post infection) | inhibition of apoptosis induced by 4 subtype divergent primary HIV viral isolates ([4]; 1 μM) | inhibition of Nef mediated FasL expression [5] | total levels of p38 (p38 MAPK) | Nef induced phosphorylation of p38 (p38 MAPK; 15-min exposure) | inhibition of FasL induction [6] | inhibition of Caspase 3 activity (Caspase 3) | blocking of Nef activation of NF-κB reporter (NF-κB) | inhibition at 1 µM ([4]; Homo sapiens, PBMC, 96 h, read-out: inhibition of apoptosis driven by virus (Annexin V-FITC))
1 | OCCC#Cc1nc(-c2ccc(F)cc2)c(-c2ccncc2)n1CCCc1ccccc1 [Cpd4, 4-(4-Fluorophenyl)-2-(4-hydroxybutyn-1-yl)-1-(3-phenylpropyl)-5-(4-pyridyl)imidazole] | effectively blocked bystander apoptosis; also recorded: could prevent Nef driven apoptosis of bystander cells | inhibit p38 MAP Kinase | higher anti-p38 activity | decrease in the phosphorylated status of c-Jun; also recorded: can be blocked | effectively blocked this effect | potent inhibition of Nef driven induction of FasL; also recorded: thoroughly repressed Nef-induced FasL expression; also recorded: highly suppressed; also recorded: could prevent Nef driven FasL activation | Strong inhibition of FasL induction; also recorded: severely repressed the surface expression of FasL | over 80% | could inhibit apoptosis | aborted completely; also recorded: completely inhibited | did not alter the total levels of p38 | no detectable increase in the phosphorylation of p38 | Strong inhibition of FasL induction; also recorded: severely repressed the surface expression of FasL | ~80% | effectively blocked this effect | 
2 | C[S+]([O-])c1ccc(-c2nc(-c3ccc(F)cc3)c(-c3ccncc3)[nH]2)cc1 (stereo not drawn) [SB203580, 4-[5-(4-Fluoro-phenyl)-2-(4-methanesulfinyl-phenyl)-3H-imidazol4-yl]-pyridine, reference compound] |  |  |  |  |  |  |  |  | could inhibit apoptosis |  |  |  |  | ~50% |  | > 50%
